Test results as given in patent US9868720B2 (Genentech, Inc., priority 2013, dated 2018).

target: DLK kinase (N-terminally GST-tagged DLK, catalytic domain amino acid 1-520) (Homo sapiens (Human), UniProt Q12852); test: DLK TR-FRET assay; format: biochemical; details: 30 μM ATP, MKK4 K131M substrate, read-out: DLK HTRF (Ki)
Procedure: DLK TR-FRET assay: DLK kinase reactions (20 μL) containing 5 nM N-terminally GST-tagged DLK (catalytic domain amino acid 1-520) (Carna Bioscience), 40 nM N-terminally HIS-tagged MKK4 K131M substrate, and 30 μM ATP in kinase reaction buffer (50 mM HEPES, pH 7.5, 0.01% Triton X-100, 0.01% Bovine γ-Globulins, 2 mM DTT, 10 mM MgCl2 and 1 mM EGTA), and testing compound 1:3 serial diluted starting at 20 uM were incubated at ambient temperature for 60 minutes in 384 well OptiPlate (Perkin Elmer). To quench kinase reactions and detect phosphorylated MKK4, 15 μL of TR-FRET antibody mixture containing 2 nM anti-phosphorylated MKK4 labeled with Europium cryptate (Cisbio) and 23 nM anti-HIS labeled with D2 (Cisbio) in detection buffer (25 mM Tris pH 7.5, 100 mM NaCl, 100 mM EDTA, 0.01% Tween-20, and 200 mM KF) was added to the reaction mixture. The detection mixture was incubated for 3 hours at ambient temperature and the TR-FRET was detected with an EnVision multilabel plate reader (Perkin-Elmer) using the LANCE/DELFIA Dual Enh label from Perkin-Elmer (excitation filter: UV2 (TRF) 320 and emission filters: APC 665 and Europium 615).

Chain of DLK kinase (N-terminally GST-tagged DLK, catalytic domain amino acid 1-520) (Q12852 1-520): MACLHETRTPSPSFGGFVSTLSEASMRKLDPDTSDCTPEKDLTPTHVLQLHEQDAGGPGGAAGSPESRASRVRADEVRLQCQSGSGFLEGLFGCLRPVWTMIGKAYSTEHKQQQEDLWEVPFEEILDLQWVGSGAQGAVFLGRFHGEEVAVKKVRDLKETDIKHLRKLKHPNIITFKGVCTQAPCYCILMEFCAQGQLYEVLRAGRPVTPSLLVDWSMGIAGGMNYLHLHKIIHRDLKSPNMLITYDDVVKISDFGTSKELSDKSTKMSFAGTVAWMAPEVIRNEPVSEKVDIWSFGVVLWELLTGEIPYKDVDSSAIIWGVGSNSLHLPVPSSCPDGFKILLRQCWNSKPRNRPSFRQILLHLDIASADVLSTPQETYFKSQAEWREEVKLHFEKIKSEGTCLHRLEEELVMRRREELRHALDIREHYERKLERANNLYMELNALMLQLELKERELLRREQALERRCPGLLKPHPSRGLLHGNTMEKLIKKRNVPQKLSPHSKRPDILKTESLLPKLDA

| SMILES | Ki [nM] |
| --- | --- |
| CC(C)c1nc(Nc2cc(C(F)(F)F)ccn2)cc(C2CN(C3COC3)C2)n1 [Example 399, [2-Isopropyl-6-(1-oxetan 3-yl-azetidin-3-yl)-pyrimidin-4-yl]-(4-trifluoromethyl-pyridin-2-yl)-amine] | 281 |
| FC(F)(F)c1ccnc(Nc2cc(C3CCOCC3)nc(N3CC4(COC4)C3)n2)c1 [Example 218, [2-(2-Oxa-6-aza-spiro-[3.3]hept-6-yl)-6-(tetrahydro-pyran-4-yl)-pyrimidin-4-yl]-(4-trifluoromethyl-pyridin-2-yl)-amine] | 288 |
| N#CC1(c2cc(Nc3cc(C(F)(F)F)ccn3)nc(Nc3cc(C(F)(F)F)ccn3)n2)CCOCC1 [Example 208, 4-[2,6-Bis-(4-trifluoro-methyl-pyridin-2-ylamino)-pyrimidin-4-yl]-tetrahydro-pyran-4-carbonitrile] | 322 |
| Cc1ccnc(Nc2cc(C3CCCN(Cc4cc(C)nn4C)C3)nc(C)n2)c1 (stereo not shown) [Example 40, {6-[1-(2,5-Dimethyl-2H-pyrazol-3-ylmethyl)-piperidin-3-yl]-2-methyl-pyrimidin-4-yl}-(4-methyl-pyridin-2-yl)-amine] | 392 |
| O=C(C1CN(c2nc(Nc3cc(C(F)(F)F)ccn3)cc(C3CCOCC3)n2)C1)N1CCOCC1 [Example 260, Morpholin-4-yl-{1-[4-(tetrahydro-pyran-4-yl)-6-(4-trifluoromethyl-pyridin-2-ylamino)-pyrimidin-2-yl]-azetidin-3-yl}-methanone] | 347 |
| Cn1nccc1-c1nc(Nc2cc(C(F)(F)F)ccn2)cc(C2CCN(CC3CCOCC3)C2)n1 (stereo not shown) [Example 388, {2-(2-Methyl-2H-pyrazol-3-yl)-6-[1-(tetrahydro-pyran-4-ylmethyl)-pyrrolidin-3-yl]-pyrimidin-4-yl]-(4-trifluoromethyl-pyridin-2-yl)-amine] | 8.75 |
| CCOc1ccnc(Nc2cc(C3CCCN(C(=O)c4ccccc4)C3)nc(C)n2)c1 (stereo not shown) [Example 21, {3-[6-(4-Ethoxy-pyridin-2-ylamino)-2-methyl-pyrimidin-4-yl]-piperidin-1-yl}-phenyl-methanone] | 60.7 |
| CC(C)c1nc(Nc2cc(C(F)(F)F)ccn2)cc(C2CCCN(C)C2)n1 (stereo not shown) [Example 145, [2-Isopropyl-6-(1-methyl-piperidin-3-yl)-pyrimidin-4-yl]-(4-trifluoro-methyl-pyridin-2-yl)-amine] | 141 |
| FC(F)(F)c1ccnc(Nc2cc(C3CCOCC3)nc(N3C4CCC3COC4)n2)c1 [Example 251, [2-(3-Oxa-8-aza-bicyclo-[3.2.1]oct-8-yl)-6-(tetrahydro-pyran-4-yl)-pyrimidin-4-yl]-(4-trifluoro-methyl-pyridin-2-yl)-amine] | 183 |
| FC1(F)CN(c2nc(Nc3cc(C(F)(F)F)ccn3)cc(C3CCN(CC4CCOCC4)C3)n2)C1 (stereo not shown) [Example 307, {2-(3,3-Difluoro-azetidin-1-yl)-6-[1-(tetrahydro-pyran-4-ylmethyl)-pyrrolidin-3-yl]-pyrimidin-4-yl}-(4-trifluoromethyl-pyridin-2-yl)-amine] | 31.9 |
| FC(F)(F)c1ccnc(Nc2cc(C3CCOCC3)nc(N3CCCOCC3)n2)c1 [Example 295, [2-[1,4]Oxazepan-4-yl-6-(tetrahydro-pyran-4-yl)-pyrimidin-4-yl]-(4-trifluoromethyl-pyridin-2-yl)-amine] | 82.7 |
| FC(F)(F)c1ccnc(Nc2cc(C3CCCN(C4COC4)C3)nc(C3CCCC3)n2)c1 (stereo not shown) [Example 391, [2-Cyclopentyl-6-(1-oxetan-3-yl-piperidin-3-yl)-pyrimidin-4-yl]-(4-trifluoromethyl-pyridin-2-yl)-amine] | 9 |
| O=C(C1CCCO1)N1CCC(c2cc(Nc3cc(C(F)(F)F)ccn3)nc(N3CC(F)(F)C3)n2)C1 (stereo not shown) [Example 265, {3-[2-(3,3-Difluoro-azetidin-1-yl)-6-(4-trifluoro-methyl-pyridin-2-ylamino)-pyrimidin-4-yl]-pyrrolidin-1-yl}-(tetrahydro-furan-2-yl)-methanone] | 159 |
| C[C@@H]1CCCN1c1nc(Nc2cc(C(F)(F)F)ccn2)cc(C2CN(S(C)(=O)=O)C2)n1 [Example 374, [6-(1-Methanesulfonyl-azetidin-3-yl)-2-((R)-2-methyl-pyrrolidin-1-yl)-pyrimidin-4-yl]-(4-trifluoromethyl-pyridin-2-yl)-amine] | 30.6 |
| CC1CCCN1c1nc(Nc2cc(C(F)(F)F)ccn2)cc(C2CCNC(=O)C2)n1 (stereo not shown) [Example 412, 4-[2-(2-Methyl-pyrrolidin-1-yl)-6-(4-trifluoromethyl-pyridin-2-ylamino)-pyrimidin-4-yl]-piperidin-2-one] | 47.5 |
| COc1cc(C)ccc1C(=O)N1CCCC(c2cc(Nc3cc(C)ccn3)nc(C)n2)C1 (stereo not shown) [Example 7] | 20.7 |
| CC(=O)N1CCCC(c2cc(Nc3cc(C)ccn3)nc(N3CCC3)n2)C1 (stereo not shown) [Example 87, 1-{3-[2-Azetidin-1-yl-6-(4-methyl-pyridin-2-ylamino)-pyrimidin-4-yl]-piperidin-1-yl}-ethanone] | 262 |
| O=C(C(F)F)N1CCC(c2cc(Nc3cc(C(F)(F)F)ccn3)nc(N3CC4CCC(C3)O4)n2)CC1 [Example 294, 2,2-Difluoro-1{-[2(8-oxa-3-aza-bicyclo[3.2.1]oct-3-yl)-6-(4-trifluoro-methyl-pyridin-2-ylamino)-pyrimidin-4-yl]-piperidin-1-yl}-ethanone] | 104 |
| FC1(F)CCN(c2nc(Nc3cc(Cl)ccn3)cc(C3CCN(C4COC4)CC3)n2)C1 [Example 427, N-(4-chloropyridin-2-yl)-2-(3,3-difluoropyrrolidin-1-yl)-6-(1-(oxetan-3-yl)piperidin-4-yl)pyrimidin-4-amine] | 16 |
| FC(F)(F)c1ccnc(Nc2cc(C3CCOCC3)nc(N3CCn4ccnc4C3)n2)c1 [Example 253, [2-(5,6-Dihydro-8H-imidazo[1,2-a]pyrazin-7-yl)-6-(tetrahydro-pyran-4-yl)-pyrimidin-4-yl]-(4-trifluoromethyl-pyridin-2-yl)-amine] | 87.7 |
| FC(F)(F)c1ccnc(Nc2cc(C3CCCN(C4COC4)C3)nc(C3CCC3)n2)c1 (stereo not shown) [Example 407, [2-Cyclobutyl-6-(1-oxetan-3-yl-piperidin-3-yl)-pyrimidin-4-yl]-(4-trifluoro-methyl-pyridin-2-yl)-amine] | 26 |

Continued, values first:

| Ki [nM] | SMILES |
| --- | --- |
| 0.85 | C[C@@H]1CCCN1c1nc(Nc2cc(C(F)(F)F)ccn2)cc(C2CCNCC2)n1 [Example 111, [2-((R)-2-Methyl-pyrrolidin-1-yl)-6-piperidin-4-yl-pyrimidin-4-yl]-(4-trifluoromethyl-pyridin-2-yl)-amine] |
| 0.4 | C[C@@H]1CCCN1c1nc(Nc2cc(C(F)(F)F)ccn2)cc(C2CCN(C)CC2)n1 [Example 169, [6-(1-Methyl-piperidin-4-yl)-2-((R)-2-methyl-pyrrolidin-1-yl)-pyrimidin-4-yl]-(4-trifluoromethyl-pyridin-2-yl)-amine] |
| 0.735 | CC1CCCN1c1nc(Nc2cc(C(F)(F)F)ccn2)cc(C2CCNCC2)n1 (stereo not shown) [Example 65, [2-(2-Methyl-pyrrolidin-1-yl)-6-piperidin-4-yl-pyrimidin-4-yl]-(4-tri-fluoromethyl-pyridin-2-yl)-amine] |
| 4.42 | CN1CCC(c2cc(Nc3cc(C(F)(F)F)ccn3)nc(N3CCC(F)(F)C3)n2)CC1 [Example 160, [2-(3,3-Difluoro-pyrrolidin-1-yl)-6-(1-methyl-piperidin-4-yl)-pyrimidin-4-yl]-(4-trifluoromethyl-pyridin-2-yl)-amine] |
| 0.5 | COc1cc(C)ccc1C(=O)N1CCCC(c2cc(Nc3cc(C)ccn3)nc(N3CCC(F)(F)C3)n2)C1 (stereo not shown) [Example 426, {3-[2-(3,3-Difluoro-pyrrolidin-1-yl)-6-(4-methyl-pyridin-2-ylamino)-pyrimidin-4-yl]-piperidin-1-yl}-(2-methoxy-4-methyl-phenyl)-methanone] |
| 4.92 | FC1(F)CCN(c2nc(Nc3cc(C(F)(F)F)ccn3)cc(C3CCN(Cc4cn[nH]c4)C3)n2)C1 (stereo not shown) [Example 404, {2-(3,3-Difluoro-pyrrolidin-1-yl)-6-[1-(1H-pyrazol-4-ylmethyl)-pyrrolidin-3-yl]-pyrimidin-4-yl}-(4-trifluoromethyl-pyridin-2-yl)-amine] |
| 8.55 | FC1(F)CCN(c2nc(Nc3cc(Cl)ccn3)cc(C3CCNCC3)n2)C1 [Example 120, (4-Chloro-pyridin-2-yl)-[2-(3,3-difluoro-pyrrolidin-1-yl)-6-piperidin-4-yl-pyrimidin-4-yl]-amine] |
| 3.2 | FC1(F)CCN(c2nc(Nc3cc(-c4cccs4)ccn3)cc(C3CCNCC3)n2)C1 [Example 201, [2-(3,3-Difluoro-pyrrolidin-1-yl)-6-piperidin-4-yl-pyrimidin-4-yl]-(4-thiophen-2-yl-pyridin-2-yl)-amine] |
| 1.72 | CC1CCCN1c1nc(Nc2cc(C(F)(F)F)ccn2)cc(C2CCN(C(=O)c3cn(C)cn3)C2)n1 (stereo not shown) [Example 376, (1-Methyl-1H-imidazol-4-yl)-{3-[2-(2-methyl-pyrrolidin-1-yl)-6-(4-trifluoromethyl-pyridin-2-ylamino)-pyrimidin-4-yl]-pyrrolidin-1-yl}-methanone] |
| 2.2 | CC(=O)N1CCC(c2cc(Nc3cc(C(F)(F)F)ccn3)nc(N3CCC[C@H]3C)n2)CC1 [Example 175, 1-{4-[2-((R)-2-Methyl-pyrrolidin-1-yl)-6-(4-trifluoromethyl-pyridin-2-ylamino)-pyrimidin-4-yl]-piperidin-1-yl}-ethanone] |
